# Results: patent US20230000894A1, “TREATING MITOCHONDRIAL DNA DEPLETION DISORDERS” (MITORAINBOW THERAPEUTICS, INC., priority 2019, published 2023)
# What was measured:
# [1] = Systemic exposure of dC and dT after oral dCMP+dTMP vs intravenous dC(P2)dT (Example 1); assay type: in vivo; conditions: for metabolism in vivo (detectability of administered labeled analyte in plasma) / higher oral dose needed to deliver comparable plasma exposure of the corresponding nucleoside compared with intravenous dC(P2)dT: in vivo
# Experimental: The systemic exposure of two mononucleotides (dCMP and dTMP) and their corresponding mononucleosides (dC and dT) following oral dosing of two mononucleotides (dCMP & dTMP) vs. intravenous dosing of a dinucleotide (dC(P2)dT) was determined. Test articles were prepared as follows:
# Unlabeled test articles: dC=Deoxycytidine (nucleoside) dT=Deoxythymidine (nucleoside) dCMP=Deoxycytidine monophosphate (mononucleotide) dTMP=Deoxythymidine monophosphate (mononucleotide) dC(P2)dT or dT(P2)dC=Deoxycytidine-deoxythymidine diphosphate (dinucleotide) Labeled test articles: dC*=^15N3 labeled dC (labeled nucleoside) dT**=^13C10 and ^15N2 labeled dT (labeled nucleoside) The corresponding labeled nucleotides are dC*MP and dT**MP The corresponding labeled dinucleotide is dC*(P2)dT** or dT**(P2)dC*.
# The nucleosides (dC and dT) and their corresponding monophosphate nucleotides (dCMP and dTMP) are naturally produced in the body. In order to differentiate naturally occurring vs exogenously administered dC/dT and dCMP/dTMP, a mixture of labeled dC*MP/dT**MP and unlabeled dCMP/dTMP was dosed via oral route, and a mixture of labeled dC*(P2)dT** and unlabeled dC(P2)dT via I.V. route. The labeled test articles served as tracers for the determination of systemic levels of exogenous dC/dT and dCMP/dTMP following dosing.
# Plasma samples were then analyzed for the following analytes: dT**, dC*, dT**MP, dC*MP, and dC*(P2)dT**.
# To correct for total TA (labeled+unlabeled) administered, the plasma levels of labeled analytes were multiplied by 10 and 5 for the P.O. and I.V. treatment groups, respectively. In addition, the total TA dose administered by P.O route was 1000 mg/kg (900 mg/kg unlabeled+100 mg/kg labeled) and 10 mg/kg (8 mg/kg unlabeled and 2 mg/kg labeled) for P.O. and I.V. treatment groups, respectively. To normalize by unit dose of TA administered the plasma levels of analytes were divided by 1000 and 10 for P.O. and I.V. treatment groups, respectively. The results of the label-corrected and dose-normalized levels of dT and dC for P.O. and I.V. routes of administration are shown in FIG. 2.
# The differences in the AUC0-24h for I.V. vs. P.O. for both analytes are statistically different (p<0.01, t-test). The ratios of I.V./P.O. AUC(0-24h)'s are approximately 350 for dT and […].
# [2] = Systemic exposure of dC and dT after a single I.V. vs one and two S.C. injections of dC(P2)dT (Example 2); assay type: in vivo; conditions: rats, 10 mg/kg total per dose (2 labeled + 8 unlabeled), initial 24 h post-dose
# Experimental: The systemic exposure of dC and dT following a single I.V. injection of dC(P2)dT vs one and two subcutaneous (S.C.) injections of dC(P2)dT was compared, where the second S.C. injection is administered 24 h after the first.
# Plasma levels of label-normalized dT and dC levels following a single I.V. and one and two S.C. administrations of labeled and unlabeled dC(P2)dT groups are shown in FIG. 4.
Compound,metabolism in vivo (detectability of administered labeled analyte in plasma) [1],higher oral dose needed to deliver comparable plasma exposure of the corresponding nucleoside compared with intravenous dC(P2)dT [1],further results
Cc1cn([C@H]2C[C@H](O)[C@@H](COP(=O)(O)O)O2)c(=O)[nH]c1=O [dT**MP],rapid metabolism,–,–
Deoxycytidine-deoxythymidine diphosphate [dC(P2)dT],–,–,"ratio of plasma AUC0-24h I.V. vs P.O. for dC ([1]; label-corrected, dose-normalized total dC in plasma, I.V. dC(P2)dT 10 mg/kg total vs P.O. dCMP+dTMP 1000 mg/kg total, p<0.01, t-test): ~110 fold; ratio of plasma AUC0-24h I.V. vs P.O. for dT ([1]; label-corrected, dose-normalized total dT in plasma, I.V. dC(P2)dT 10 mg/kg total vs P.O. dCMP+dTMP 1000 mg/kg total, p<0.01, t-test): approximately 350 fold; mean AUC0-24h of dT and dC in plasma, I.V. vs one and two S.C. administrations [2]: not statistically different"
Nc1ccn([C@H]2C[C@H](O)[C@@H](COP(=O)(O)O)O2)c(=O)n1 [dC*MP],rapid metabolism,–,–
"Cc1cn([C@H]2C[C@H](O)[C@@H](COP(=O)(O)O)O2)c(=O)[nH]c1=O [dTMP, Deoxythymidine monophosphate]",–,approximately 350 fold,–
"Nc1ccn([C@H]2C[C@H](O)[C@@H](COP(=O)(O)O)O2)c(=O)n1 [dCMP, Deoxycytidine monophosphate]",–,approximately 110 fold,–
